Drawing on US11564923B2, “Compounds and pharmaceutical compositions thereof for the treatment of inflammatory disorders” (Galapagos NV, priority 2017, dated 2023), this text covers IC50 for 11 molecules.

The assay deals with T1, Recombinant human TYK2 catalytic domain (amino acids 871-1187) (Homo sapiens, UniProt P29597).
T1 construct: catalytic domain (amino acids 871-1187)
T1 sequence (P29597 871-1187): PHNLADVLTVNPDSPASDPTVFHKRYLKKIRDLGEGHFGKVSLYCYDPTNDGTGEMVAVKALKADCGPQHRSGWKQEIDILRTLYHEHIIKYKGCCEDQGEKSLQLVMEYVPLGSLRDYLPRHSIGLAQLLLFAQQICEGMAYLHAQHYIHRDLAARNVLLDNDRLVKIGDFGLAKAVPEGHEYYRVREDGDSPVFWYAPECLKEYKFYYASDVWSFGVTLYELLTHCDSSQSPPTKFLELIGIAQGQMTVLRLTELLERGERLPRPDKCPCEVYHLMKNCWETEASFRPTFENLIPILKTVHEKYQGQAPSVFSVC
Kind of assay: TYK2 radioactive assay polyGT substrate. Also: 0.1 µM ATP. It is filed as biochemical. As for the experimental part:
After 120 min at 30° C., reactions were stopped by adding 25 μL/well of 150 mM phosphoric acid. […] Plates were washed 6 times with 300 μL per well of a 75 mM phosphoric acid solution and the bottom of the plates is sealed. […] Kinase activity is calculated by subtracting counts per min (cpm) obtained in the presence of a positive control inhibitor (10 μM staurosporine) from cpm obtained in the presence of vehicle. The ability of a test compound to inhibit this activity (or percentage inhibition) is determined as: […]
cpm test compound=cpm determined for sample with test compound present cpm control=cpm determined for sample with positive control inhibitor cpm vehicle=cpm determined in the presence of vehicle
Dose dilution series were prepared for the compounds enabling the testing of dose-response effects in the TYK2 assay and the calculation of the IC50 for each compound. Each compound is routinely tested at concentration of 20 μM followed by a 1/5 serial dilution, 10 points in a final concentration of 1% DMSO.
On to `Cc1cc(C#N)ncc1Oc1cc(Nc2ccc(C(=O)N3C[C@@H](O)[C@H](F)C3)cn2)c2ncn(C)c2n1` (racemic) [Compound 140, 4-methyl-5-[3-methyl-7-[[5-[rac-(3R,4R)-3-fluroo-4-hydroxypyrrolidine-1-carbonyl]pyridin-2-yl]amino]imidazo[4,5-b]pyridin-5-yl]oxypyridine-2-carbonitrile], for which the IC50 (usually the concentration at which inhibition is half-maximal) stood at 2.87 nM.

With `CO[C@@H]1CN(C(=O)c2ccc(Nc3cc(Oc4cnc(C#N)cc4C)nc4c3ncn4C)nc2)C[C@H]1F` (racemic) [Compound 142, 4-methyl-5-[3-methyl-7-[[5-[rac-(3R,4R)-3-fluoro-4-methoxypyrrolidine-1-carbonyl]pyridin-2-yl]amino]imidazo[4,5-b]pyridin-5-yl]oxypyridine-2-carbonitrile], the IC50 was determined as 4.53 nM.

Take `CCNC(=O)Cc1ccc(Nc2cc(Oc3cnc(C#N)cc3C)nc3c2ncn3C)cc1` [Compound 27, 2-{4-[5-(6-Cyano-4-methyl-pyridin-3-yloxy)-3-methyl-3H-imidazo[4,5-b]pyridin-7-ylamino]-phenyl}-N-ethyl-acetamide]: the IC50 was found to be 38.9 nM.

For `Cc1cc(C#N)ncc1Oc1cc(Nc2ccc(C(=O)N3CCOCC3)nc2)c2ncn(C)c2n1` [Compound 28, 4-Methyl-5-{3-methyl-7-[6-(morpholine-4-carbonyl)-pyridin-3-ylamino]-3H-imidazo[4,5-b]pyridin-5-yloxy}-pyridine-2-carbonitrile], the IC50 amounted to 27.1 nM.

On to `CNC(=O)c1ccc(Nc2cc(Oc3cnc(C#N)cc3C)nc3c2ncn3C)cn1` [Compound 29, 5-[5-(6-Cyano-4-methyl-pyridin-3-yloxy)-3-methyl-3H-imidazo[4,5-b]pyridin-7-ylamino]-pyridine-2-carboxylic acid methylamide], for which the IC50 stood at 97.4 nM.

As for `Cc1cc(C#N)ncc1Oc1cc(Nc2ccc(N3CCN(CC(F)(F)F)CC3)nn2)c2ncn(C)c2n1` [Compound 42, 4-Methyl-5-(3-methyl-7-{6-[4-(2,2,2-trifluoro-ethyl)-piperazin-1-yl]-pyridazin-3-ylamino}-3H-imidazo[4,5-b]pyridin-5-yloxy)-pyridine-2-carbonitrile], the IC50 came to 2.74 nM.

As for `Cc1cc(C#N)ncc1Oc1cc(Nc2ccc(N3CCC(C#N)CC3)nn2)c2ncn(C)c2n1` [Compound 45, 5-{7-[6-(4-Cyano-piperidin-1-yl)-pyridazin-3-ylamino]-3-methyl-3H-imidazo[4,5-b]pyridin-5-yloxy}-4-methyl-pyridine-2-carbonitrile], the IC50 came out at 2.17 nM.

With `Cc1cc(C#N)ncc1Oc1cc(Nc2ccc(C(=O)N(C)C)c(C)n2)c2ncn(C)c2n1` [Compound 77, 6-[[5-[(6-cyano-4-methyl-3-pyridyl)oxy]-3-methyl-imidazo[4,5-b]pyridin-7-yl]amino]-N,N,2-trimethyl-pyridine-3-carboxamide], the 50% inhibitory concentration (IC50) is 2.98 nM.

Take `Cc1cc(C#N)ncc1Oc1cc(Nc2ccc(C(=O)NCCCO)cn2)c2ncn(C)c2n1` [Compound 101, 6-[[5-[(6-cyano-4-methyl-3-pyridyl)oxy]-3-methyl-imidazo[4,5-b]pyridin-7-yl]amino]-N-(3-hydroxypropyl)pyridine-3-carboxamide]: the IC50 came out at 9.36 nM.

As to `Cc1cc(C#N)ncc1Oc1cc(Nc2ccc(N3CCOCC3)cc2)c2ncn(C)c2n1` [Compound 109, 4-methyl-5-[3-methyl-7-(4-morpholinoanilino)imidazo[4,5-b]pyridin-5-yl]oxy-pyridine-2-carbonitrile], the IC50 amounted to 24.4 nM.

`Cc1cc(C#N)ncc1Oc1cc(Nc2ccc(N3CCN(C)CC3)cc2)c2ncn(C)c2n1` [Compound 110, 4-methyl-5-[3-methyl-7-[4-(4-methylpiperazin-1-yl)anilino]imidazo[4,5-b]pyridin-5-yl]oxy-pyridine-2-carbonitrile]: the IC50 is 26.7 nM.
